Tests used:
[1] = tested on: H3K27me3/total H3 in SW982 cells; assay: H3K27 methylation alterations by ELISA of extracted histones; assay type: cell-based, human; details: SW982, 96 hours
Protocol: (§1) HS-SY-II and SW982 cells were treated with either DMSO or Compound A starting at 40 nmol/L and decreasing in fourfold dilutions for 96 hours. Cells were washed by ice cold PBS, harvested by cell scraper, and lysed with 100 μl of nuclear extraction buffer (10 mM Tris-HCl, 10 mM MgCl2, 25 mM KCl, 1% Triton X-100, 8.6% Sucrose, plus 1× Halt Protease inhibitor cocktail (1861281, Thermo Scientific). Nuclei were collected by centrifugation at 600 g for 5 minutes at 4° C. and washed once with ice cold PBS. Supernatant was removed and histones extracted for one hour with 100 μL of 0.4 N cold sulfuric acid. Extracts were clarified by centrifugation at 10,000 g for 10 minutes at 4° C. and transferred to a fresh microcentrifuge tube containing 1 mL of ice cold acetone. Histones were precipitated at −20° C. for overnight, pelleted by centrifugation at 10,000 g for 10 minutes and resuspended in 100 μl of water. Histones were quantified using the BCA protein assay (23225, Pierce). […] Subsequently, the developed colors in the wells were measured using a plate spectrophotometer (SpectraMax 250, Molecular Devices) at 450 nm (reference wavelength 650 nm). The H3K27me3 levels were adjusted to total histone H3, and expressed as fold changes to DMSO control.
(§2) The range of IC50 values (two independent experiments), shown in FIG. 6B, were determined by GraphPad Prism (GraphPad Software).

[2] = tested on: H3K27me3/total H3 in HS-SY-II cells; assay: as above; assay type: cell-based, human; details: 96 hours
Protocol: as §1, §2

[3] = tested on: CDKN2A expression in HS-SY-II xenograft; assay: Gene expression changes in vivo in HS-SY-II xenograft by RT-PCR; set-up: species or system mice; details: 500 mg/kg oral twice daily for 7 days
Protocol: Tumor samples were collected at approximately 3 hours after the last dose from mice used in analysis for PK values and PD alterations.

[4] = tested on: H3K27me3 in HS-SY-II xenograft; assay: H3K27me3 in tumor of HS-SY-II xenograft, 7 days twice daily oral dosing (ELISA); assay type: in vivo, mice; details: for H3K27me3 in tumor, Mean 2 (fold change to vehicle) / H3K27me3 in tumor, Mean Diff. vehicle vs. treated: 7 days; for H3K27me3 in tumor, Dunnett's test Significant?: alpha 0.05
Protocol: (§3) HS-SY-II cells were harvested during mid-log phase growth, and resuspended in Hank balanced salt solution with 50% Matrigel (BD Biosciences). Balb/C-nu mice (Charles River Laboratories Japan) received 1×10^7 cells (0.1 mL cell suspension) subcutaneously in the right flank. Mice carrying tumors of approximately 200 mm^3 (31 days after injection) were sorted into treatment groups with similar mean tumor volumes. Compound A or vehicle (0.5% MC+0.1% Tween-80 in water) was administered at the indicated doses on twice a day for 7 days by oral gavage. Each dose was delivered in a volume of 0.2 mL/20 g mouse (10 mL/kg), and adjusted for the last recorded weight of individual animals. Peripheral blood samples were collected at approximately 5 minutes before and 3 hours after the last dose from Compound A-treated mice. After obtaining plasma samples by centrifugation, the analysis for plasma concentrations of Compound A was conducted by the liquid chromatography-tandem mass spectrometry (LC/MS/MS) method. The UPLC system (Acquity, Waters) equipped with a mass spectrometer (Quattro premier, MICROMASS) was used for quantification of Compound A. The concentrations are plotted (n=5) in FIG. 7A. Each bar represents a mean of plasma concentration in each group.
For FIG. 10D, tumors were snap-frozen in liquid nitrogen. Frozen tumor samples were cut into a 20 mg pieces and placed in 500 μL of ice cold nuclear extraction buffer (10 mM Tris-HCl, 10 mM MgCl2, 25 mM KCl, 1% Triton X-100, 8.6% Sucrose, plus 1× Halt Protease inhibitor cocktail (1861281, Thermo Scientific)) and homogenized with a handy micro homogenizer. Nuclei were collected by centrifugation at 600 g for 5 minutes at 4° C. and washed once with ice cold PBS. Supernatant was removed and histones extracted for one hour with […] 0.4 N cold sulfuric acid. Extracts were clarified by centrifugation at 10,000 g for 10 minutes at 4° C. and transferred to a fresh microcentrifuge tube containing 1 mL of ice cold acetone. Histones were precipitated at −20° C. for overnight, pelleted by centrifugation at 10,000 g for 10 minutes and resuspended in 100 μl of water. Histones were quantified using the BCA protein assay (23225, Pierce). The diluted histones were coated on Immulon 4HBX plates (3855, Thermo Scientific) overnight and ELISA was performed. Briefly, after blocking with PBS containing 0.05% Tween 20 and 2% bovine serum albumin (BSA), the plates were incubated with H3K27me3 antibody (#9733, Cell Signaling Technology) or total histone H3 antibody (AB1791, Abcam). The plates were further incubated with horseradish peroxidase conjugated anti-rabbit IgG (#7074, Cell Signaling Technology), followed by incubated with TMB substrate (TMBS-0100-01, BioFx Laboratories). Subsequently, the developed colors in the wells were measured using a plate spectrophotometer (SpectraMax 250, Molecular Devices) at 450 nm (reference wavelength 650 nm). The H3K27me3 levels were adjusted to total histone H3, and expressed as fold changes to vehicle control. The values are plotted (n=6) in FIG. 10D. Each bar represents a mean of the values in each group. […] Histones were extracted and quantified, and the levels of H3K27me3 were analyzed as described above. Trimethylation levels of H3K27 in the tumor are plotted (n=5) in FIG. 7B. Each bar represents a mean±SEM of the trimethylation level in each group.

[5] = Plasma concentrations in HS-SY-II xenograft model (LC/MS/MS); assay type: in vivo, mice; details: oral twice daily for 7 days; 5 minutes before and 3 hours after the last dose
Protocol: as §3

CCN(c1cc(-c2ccc(CN3CCOCC3)cc2)cc(C(=O)NCc2c(C)cc(C)[nH]c2=O)c1C)C1CCOCC1 [Compound A]
ratio of H3K27me3/total H3 (ratio to control) [1]: decreased ratios | ratio of H3K27me3/total H3 (ratio to control) [2]: decreased ratios | CDKN2A expression in tumor [3]: significantly upregulated | H3K27me3 in tumor, Dunnett's test Summary ([4]; 125 mg/kg): * * * | H3K27me3 in tumor, Mean 2 (fold change to vehicle) ([4]; 125 mg/kg oral twice daily): 0.7 | H3K27me3 in tumor, Mean Diff. vehicle vs. treated ([4]; 125 mg/kg oral twice daily): 0.3 | H3K27me3 in tumor, Dunnett's test Significant? ([4]; 125 mg/kg): Yes | H3K27me3 in tumor, Dunnett's test Summary ([4]; 250 mg/kg): * * * | H3K27me3 in tumor, Mean 2 (fold change to vehicle) ([4]; 250 mg/kg oral twice daily): 0.55 | H3K27me3 in tumor, Mean Diff. vehicle vs. treated ([4]; 250 mg/kg oral twice daily): 0.45 | H3K27me3 in tumor, Dunnett's test Significant? ([4]; 250 mg/kg): Yes | H3K27me3 in tumor, Dunnett's test Summary ([4]; 500 mg/kg): * * * | H3K27me3 in tumor, Mean 2 (fold change to vehicle) ([4]; 500 mg/kg oral twice daily): 0.304 | H3K27me3 in tumor, Mean Diff. vehicle vs. treated ([4]; 500 mg/kg oral twice daily): 0.696 | H3K27me3 in tumor, Dunnett's test Significant? ([4]; 500 mg/kg): Yes | H3K27me3 levels in tumor tissues ([4]; oral twice daily for 7 days): dose dependent decrease | plasma concentrations [5]: Dose dependent exposure

Reference: patent publication US10946024B2, “Method for treating cancer” (Epizyme, Inc., priority 2014, dated 2021)
